Like-named read-outs stand apart in the source and are kept apart here.
Key:
[1] = tested on: angiotensin II (Ang II) and angiotensin-converting enzyme (ACE); design: method as in PMID 37446639; conditions: SHR; cited from earlier work
[2] = tested on: spontaneously hypertensive rats (SHR); design: method as in PMID 37446639; conditions: cited from earlier work
[3] = tested on: spontaneously hypertensive rats (SHR); assay: Serum creatinine and renal NOX2 expression in SHR; assay type: in vivo, rat
ACE = ACE content in murine serum, cerebral tissue and renal compartments (preliminary data); assay type: in vivo; conditions: cerebral tissue, renal compartments
mice = tested on: mice; design: method as in doi:10.19803/j.1672-8629.20220529; conditions: cited from earlier work
[4] = Stability in rat urine, feces and bile matrices (QC samples); assay type: in vitro ADME
Experimental: The stability of 221s (2,9) in rat urine, feces, and bile matrices was evaluated using QC samples at three concentration levels (10, 1000, and 1600 ng/mL) across six replicates under four conditions per matrix: three freeze–thaw cycles, short-term storage (room temperature, 2 h), long-term storage (−80 °C, 30 days), and autosampler rack storage (4 °C, 24 h). Stability was quantified by comparing post-storage concentrations (normalized to freshly prepared QC samples analyzed in the same batch) with nominal values, with deviations ≤15% considered acceptable. Dilution reliability was assessed by 5-fold dilution of QC samples (1000/1600 ng/mL) in each matrix using blank rat plasma. Dilution accuracy was verified by comparing measured concentrations (post-dilution factor correction) to nominal values, with acceptable criteria defined as ≤15% relative error (RE) and ≤15% relative standard deviation (RSD).

[5] = Excretion study of unchanged drug in urine, feces and bile after oral administration (UPLC-MS/MS); assay type: in vivo, Sprague-Dawley rats; conditions: 30 mg/kg oral; for dose excreted: male, Sprague-Dawley, rat, at 72 h
Experimental: According to previous data, analytical separation was performed using an ultra-performance liquid chromatography-tandem mass spectrometry (UPLC-MS/MS) platform comprising a Waters ACQUITY UPLC H-Class (Waters, Milford, CT, USA) system coupled to an AB Sciex Triple Quad 6500 mass spectrometer (AB Sciex, Boston, MA, USA). Chromatographic resolution was achieved on a Waters ACQUITY UPLC BEH C18 column (1.7 μm, 2.1 × 50 mm) maintained at 40 °C. The mobile phase system incorporated two components: solvent A (0.02% formic acid and 5 mM NH4F in deionized water) and solvent B (acetonitrile), delivered at 0.2 mL/min with a 10 μL injection volume. The gradient program was configured as follows: 55% solvent A (0.0–0.6 min), 5% solvent A (0.6–2.5 min), followed by re-equilibration at 55% solvent A (2.5–5.0 min).
Mass spectrometric detection utilized positive electrospray ionization (ESI+) in MRM mode, monitoring precursor-to-product ion transitions at m/z 525.1→389.1 (221s (2,9)) and 357.0→220.9 (IS). Instrument parameters were optimized as follows: curtain gas 25 psi, ion source temperature 500 °C, GS1/GS2 pressures 50/40 psi, ion spray voltage 5 kV, and collision gas pressure 10 psi. Compound-dependent parameter settings included decluttering potential (DP), entrance potential (EP), collision cell exit potential (CXP), and collision energy (CE) of 160/10/5/63 V for 221s (2,9) and 70/10/5/20 V for IS. Data processing was executed using Analyst software (v1.6.3).
Six male Sprague-Dawley (SD) rats aged 8–10 weeks (body weight: 220–250 g) were individually housed in metabolic cages. Following a 12 h fasting period with free access to water, baseline urinary and fecal samples were collected as blank controls prior to drug administration. Samples of urine and feces were collected from 0–4 h, 4–8 h, 8–12 h, 12–24 h, 24–36 h, 36–48 h, 48–60 h, 60–72 h, and 72–84 h post-administration of 221s (2,9) with an oral dosage of 30 mg/kg. Urine samples were quantitatively measured for volume before storage at −80 °C while fecal samples were dried, pulverized, and weighed prior to preservation at −80 °C.
Six male SD rats were fasted for 12 h prior to drug administration, with free access to water. After being anesthetized with isoflurane, the rats were positioned supine on surgical platforms for common bile duct cannulation. Blank bile samples were collected following stabilization of bile flow. Following oral gavage of 30 mg/kg 221s (2,9), bile samples were sequentially collected during 0–2 h, 2–4 h, 4–8 h, 8–12 h, 12–24 h, 24–36 h, 36–48 h, and 48–72 h intervals. All biliary specimens were volumetrically measured and cryopreserved at −80 °C for subsequent analysis. Hydration maintenance was ensured through intraperitoneal administration of physiological saline during experimental procedures.
A total of 10 μL of IS (1 μg/mL) was added to each urinary sample (100 μL), followed by the addition of three volumes of acetonitrile. The mixtures were vortexed and centrifuged twice. Then, the supernatants were concentrated, lyophilized and reconstituted in 100 μL of acetonitrile. The supernatants were subjected to instrumental analysis after final centrifugation.
Fecal samples (100 mg) were homogenized with three volumes of saline via ultrasonication for 10 min. Then, 10 μL of IS (1 μg/mL) was added, before adding three volumes of acetonitrile. […] After vortexing and dual centrifugation, the supernatant was concentrated, lyophilized, and reconstituted in 100 μL of acetonitrile. The supernatants were subjected to instrument for analysis after final centrifugation.
Biliary samples (100 μL) were precisely aliquoted and added with 10 μL IS (1 μg/mL). Following homogenization, three volumes of acetonitrile were added to precipitate impurities. After vortexing and centrifuging twice, the supernatant was concentrated, lyophilized, and reconstituted in 100 μL of acetonitrile. […]

[6] = design: method as in PMID 23607051; conditions: cited from earlier work

## CC(NC(=O)C(O)Cc1ccc(O)c(O)c1)C(=O)N1CCCC1C(=O)OC1CC2CCC1(C)C2(C)C (stereo not drawn) [221s (2,9)]
[1]
  serum level of angiotensin II (Ang II): significantly reduced
  serum level of angiotensin-converting enzyme (ACE): significantly reduced
[2]
  antihypertensive efficacy compared with captopril: comparable to that of captopril
  reduction of diastolic blood pressure: 35 mmHg
  reduction of systolic blood pressure: 50 mmHg
[3]; p < 0.01
  decrease of serum creatinine level: 38.99%
[3]; p < 0.05
  downregulation of renal NOX2 expression: 16.23%
ACE
  ACE content: reduces ACE content
mice; at 3000 mg/kg oral gavage
  effects on body weight, dietary intake, histopathological parameters of liver, lungs and kidneys: no substantial effects
mice; oral gavage
  acute toxicity: no significant acute toxicity
  maximum tolerated dose: 3000 mg/kg
[4]; bile, autosampler rack (4 °C) for 24 h, spiked 10 ng/mL
  Stability RE (%): −4.4%
[4]; bile, autosampler rack (4 °C) for 24 h, spiked 1000 ng/mL
  Stability RE (%): −3.2%
[4]; bile, autosampler rack (4 °C) for 24 h, spiked 1600 ng/mL
  Stability RE (%): −3.8%
[4]; bile, room temperature for 2 h, spiked 10 ng/mL
  Stability RE (%): −5.2%
[4]; bile, room temperature for 2 h, spiked 1000 ng/mL
  Stability RE (%): −4.5%
[4]; bile, room temperature for 2 h, spiked 1600 ng/mL
  Stability RE (%): 5.1%
[4]; bile, three freeze/thaw cycles, spiked 10 ng/mL
  Stability RE (%): −8.4%
[4]; bile, three freeze/thaw cycles, spiked 1000 ng/mL
  Stability RE (%): −4.1%
[4]; bile, three freeze/thaw cycles, spiked 1600 ng/mL
  Stability RE (%): 4.2%
[4]; bile, −80 °C for 30 days, spiked 10 ng/mL
  Stability RE (%): −3.1%
[4]; bile, −80 °C for 30 days, spiked 1000 ng/mL
  Stability RE (%): 1.5%
[4]; bile, −80 °C for 30 days, spiked 1600 ng/mL
  Stability RE (%): 3.4%
[4]; feces, autosampler rack (4 °C) for 24 h, spiked 10 ng/mL
  Stability RE (%): −4.9%
[4]; feces, autosampler rack (4 °C) for 24 h, spiked 1000 ng/mL
  Stability RE (%): −2.2%
[4]; feces, autosampler rack (4 °C) for 24 h, spiked 1600 ng/mL
  Stability RE (%): 4.6%
[4]; feces, room temperature for 2 h, spiked 10 ng/mL
  Stability RE (%): −6.7%
[4]; feces, room temperature for 2 h, spiked 1000 ng/mL
  Stability RE (%): −3.6%
[4]; feces, room temperature for 2 h, spiked 1600 ng/mL
  Stability RE (%): −4.7%
[4]; feces, three freeze/thaw cycles, spiked 10 ng/mL
  Stability RE (%): −5.3%
[4]; feces, three freeze/thaw cycles, spiked 1000 ng/mL
  Stability RE (%): −4.8%
[4]; feces, three freeze/thaw cycles, spiked 1600 ng/mL
  Stability RE (%): −3.2%
[4]; feces, −80 °C for 30 days, spiked 10 ng/mL
  Stability RE (%): −6.4%
[4]; feces, −80 °C for 30 days, spiked 1000 ng/mL
  Stability RE (%): −5.3%
[4]; feces, −80 °C for 30 days, spiked 1600 ng/mL
  Stability RE (%): 2.8%
[4]; room temperature 2 h, three freeze-thaw cycles, −80 °C 30 days, 4 °C autosampler 24 h
  degradation in urinary/fecal/biliary samples: no significant degradation
[4]; urine, autosampler rack (4 °C) for 24 h, spiked 10 ng/mL
  Stability RE (%): −7.3%
[4]; urine, autosampler rack (4 °C) for 24 h, spiked 1000 ng/mL
  Stability RE (%): −6.3%
[4]; urine, autosampler rack (4 °C) for 24 h, spiked 1600 ng/mL
  Stability RE (%): 3.9%
[4]; urine, room temperature for 2 h, spiked 10 ng/mL
  Stability RE (%): −12.5%
[4]; urine, room temperature for 2 h, spiked 1000 ng/mL
  Stability RE (%): −1.5%
[4]; urine, room temperature for 2 h, spiked 1600 ng/mL
  Stability RE (%): 3.4%
[4]; urine, three freeze/thaw cycles, spiked 10 ng/mL
  Stability RE (%): −9.4%
[4]; urine, three freeze/thaw cycles, spiked 1000 ng/mL
  Stability RE (%): −6.4%
[4]; urine, three freeze/thaw cycles, spiked 1600 ng/mL
  Stability RE (%): −2.6%
[4]; urine, −80 °C for 30 days, spiked 10 ng/mL
  Stability RE (%): −8.7%
[4]; urine, −80 °C for 30 days, spiked 1000 ng/mL
  Stability RE (%): −5.4%
[4]; urine, −80 °C for 30 days, spiked 1600 ng/mL
  Stability RE (%): −5.5%
[5]; feces, at 48 h, rats, unchanged drug
  cumulative fecal output: 36,726.31 ± 5507 ng
[5]; feces, between 4 and 8 h, rats, unchanged drug
  fecal excretion rate: 7994.29 ± 953.75 ng/h
[5]; bile, bile duct cannulated rats, read-out: recovery of unchanged drug in bile (accumulative excretion rate, % of administered dose)
  dose excreted: 0.00044 ± 2e-05%
[5]; feces, rats, read-out: recovery of unchanged drug in feces (accumulative excretion rate, % of administered dose)
  dose excreted: 0.73 ± 0.069%
[5]; urine, rats, read-out: recovery of unchanged drug in urine (accumulative excretion rate, % of administered dose)
  dose excreted: 0.02 ± 0.021%
[5]; urine + feces + bile, over 72 h, rats
  total recovery of unchanged drug across all matrices (% of administered dose): below 1%
[5]; urine, at 8 h post-dosing, rats, unchanged drug
  peak urinary excretion rate: 138.81 ± 15.56 ng/h
[5]; urine, plateau by 48 h, rats, unchanged drug
  cumulative urinary excretion: 1479.81 ± 155.7 ng

## CC1(C)C2CCC1(C)C(OC(=O)c1cc(O)c(O)c(O)c1)C2 (stereo not drawn) [bornyl gallate]
[6]
  tissue distribution: pronounced renal accumulation alongside measurable brain distribution

Source: publication PMC12389711, “Study on the Excretion of a New Antihypertensive Drug 221s (2,9) in Rats” (Pharmaceuticals, 2025)
